Legend:
[1] = test system: human lung cancer strain NCI-H441; type: cell-based
In short: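 Readout: […] after the ATP-based reagent. Compound: serial dilutions in dimethyl sulfoxide.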

[2] = biological target: HRAS wild-type protein (Homo sapiens, UniProt P01112); assay: Binding to HRAS by surface plasmon resonance (SPR), KD and KD ratio to KRAS; details: ratio of KD value for HRAS wild-type protein to KD value for KRAS (SPR)
In short: (§1)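 GDP-bound biotin-Avi RAS captured at ~100–300 RU, 30°C, pH 7.4 HBS containing 10 µM GDP, 10 mM MgCl2, 1 mM DTT, 0.01% Tween 20 and 4% DMSO. KD by 1:1 fitting.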

[3] = biological target: GDP-bound NRAS wild-type protein (Homo sapiens, UniProt P01111); assay: Binding to NRAS by surface plasmon resonance (SPR), KD and KD ratio to KRAS; details: ratio of KD value for GDP-bound NRAS wild-type protein to KD value for KRAS (SPR)
Sequence of GDP-bound NRAS wild-type protein (P01111 whole entry): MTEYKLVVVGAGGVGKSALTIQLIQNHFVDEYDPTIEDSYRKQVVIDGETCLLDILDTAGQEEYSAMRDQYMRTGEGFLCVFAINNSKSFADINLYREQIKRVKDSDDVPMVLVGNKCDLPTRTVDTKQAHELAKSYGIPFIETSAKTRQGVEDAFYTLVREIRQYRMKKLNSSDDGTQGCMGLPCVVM
In short: as §1

Sequence of HRAS wild-type protein (P01112 whole entry): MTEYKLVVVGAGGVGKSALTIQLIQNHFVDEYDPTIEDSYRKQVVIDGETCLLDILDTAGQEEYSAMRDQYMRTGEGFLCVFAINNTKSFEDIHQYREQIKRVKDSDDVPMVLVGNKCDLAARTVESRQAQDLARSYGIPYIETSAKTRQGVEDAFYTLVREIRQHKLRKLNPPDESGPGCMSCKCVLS

| IC50 [1] [nM] | Structure (SMILES) | HRAS /KRAS [2] | NRAS /KRAS [3] |
| --- | --- | --- | --- |
| 2.7 | CC[C@H](C)[C@@H]1NC(=O)[C@H](CC(C)C)N(C)C(=O)C[C@@H](C(=O)N(C)C)N(C)C(=O)[C@H](C2CCCC2)N(C)C(=O)C2(CC(C)(C)C2)NC(=O)[C@@H]2CC(F)(F)CN2C(=O)[C@H](CCc2cc(F)c(C(F)(F)F)c(F)c2)NC(=O)CN(C)C(=O)[C@H](Cc2ccc(C(F)(F)F)cc2)N2CC/C=C\C[C@@H](C2=O)N(C)C(=O)CN(C)C1=O [PP1715] | A (a compound having 10 or more and less than 20 is denoted as A) | AA (a compound having 20 or more is denoted as AA) |
| 3.8 | CC[C@H](C)[C@@H]1NC(=O)[C@H](CC2CCC2)N(C)C(=O)C[C@@H](C(=O)N(C)C)N(C)C(=O)[C@H](C2CCCC2)N(C)C(=O)C2(CC(C)(C)C2)NC(=O)[C@@H]2CC(F)(F)CN2C(=O)[C@H](CCc2cc(F)c(C(F)(F)F)c(F)c2)NC(=O)CN(C)C(=O)[C@H](Cc2ccc(C(F)(F)F)cc2)N2CC/C=C\C[C@@H](C2=O)N(C)C(=O)CN(C)C1=O [PP1716] | A (a compound having 10 or more and less than 20 is denoted as A) | AA (a compound having 20 or more is denoted as AA) |
| 2.4 | CC[C@H](C)[C@@H]1NC(=O)[C@H](COC)N(C)C(=O)C[C@@H](C(=O)N(C)C)N(C)C(=O)[C@H](C2CCCC2)N(C)C(=O)C2(CC(C)(C)C2)NC(=O)[C@@H]2CC(F)(F)CN2C(=O)[C@H](CCc2cc(F)c(C(F)(F)F)c(F)c2)NC(=O)CN(C)C(=O)[C@H](Cc2ccc(C(F)(F)F)cc2)N2CC/C=C\C[C@@H](C2=O)N(C)C(=O)CN(C)C1=O [PP1717] | A (a compound having 10 or more and less than 20 is denoted as A) | A (a compound having 10 or more and less than 20 is denoted as A) |
| 2.5 | CCCOC[C@H]1C(=O)N[C@@H]([C@@H](C)CC)C(=O)N(C)CC(=O)N(C)[C@H]2C/C=C\CCN(C2=O)[C@@H](Cc2ccc(C(F)(F)F)cc2)C(=O)N(C)CC(=O)N[C@@H](CCc2cc(F)c(C(F)(F)F)c(F)c2)C(=O)N2CC(F)(F)C[C@H]2C(=O)NC2(CC(C)(C)C2)C(=O)N(C)[C@@H](C2CCCC2)C(=O)N(C)[C@H](C(=O)N(C)C)CC(=O)N1C [PP1718] | A (a compound having 10 or more and less than 20 is denoted as A) | AA (a compound having 20 or more is denoted as AA) |
| 1.8 | CC[C@H](C)[C@@H]1NC(=O)[C@H](CC(F)(F)F)N(C)C(=O)C[C@@H](C(=O)N(C)C)N(C)C(=O)[C@H](C2CCCC2)N(C)C(=O)C2(CC(C)(C)C2)NC(=O)[C@@H]2CCCN2C(=O)[C@H](CCc2cc(F)c(C(F)(F)F)c(F)c2)NC(=O)CN(C)C(=O)[C@H](Cc2ccc(C(F)(F)F)cc2)N2CC/C=C\C[C@@H](C2=O)N(C)C(=O)CN(C)C1=O [PP1722] | A (a compound having 10 or more and less than 20 is denoted as A) | AA (a compound having 20 or more is denoted as AA) |
| 18.3 | CC[C@H](C)[C@@H]1NC(=O)[C@H](CC2CCC2)N(C)C(=O)C[C@@H](C(=O)N(C)C)N(C)C(=O)[C@H](C2CCCC2)N(C)C(=O)C2(CC(C)(C)C2)NC(=O)[C@@H]2CCCN2C(=O)[C@H](CCc2cc(F)c(C(F)(F)F)c(F)c2)NC(=O)CN(C)C(=O)[C@H](Cc2ccc(C(F)(F)F)cc2)N2CC/C=C\C[C@@H](C2=O)N(C)C(=O)CN(C)C1=O [PP1728] | A (a compound having 10 or more and less than 20 is denoted as A) | A (a compound having 10 or more and less than 20 is denoted as A) |

Second part, the molecule before the results:

| Structure (SMILES) | IC50 [1] [nM] | HRAS /KRAS [2] | NRAS /KRAS [3] |
| --- | --- | --- | --- |
| CCCN(C)C(=O)[C@@H]1CC(=O)N(C)[C@@H](CC(F)F)C(=O)N[C@@H]([C@@H](C)CC)C(=O)N(C)CC(=O)N(C)[C@H]2C/C=C\CCN(C2=O)[C@@H](Cc2ccc(C(F)(F)F)cc2)C(=O)N(C)CC(=O)N[C@@H](CCc2cc(F)c(C(F)(F)F)c(F)c2)C(=O)N2CCC[C@H]2C(=O)NC2(CC(C)(C)C2)C(=O)N(C)[C@@H](C2CCCC2)C(=O)N1C [PP1721] | 10 | A (a compound having 10 or more and less than 20 is denoted as A) | A (a compound having 10 or more and less than 20 is denoted as A) |
| CC[C@H](C)[C@@H]1NC(=O)[C@H](CC(C)C)N(C)C(=O)C[C@@H](C(=O)N(C)C)N(C)C(=O)[C@H](C2CCCC2)N(C)C(=O)C2(CC(C)(C)C2)NC(=O)[C@@H]2CCCN2C(=O)[C@H](CCc2cc(F)c(C(F)(F)F)c(F)c2)NC(=O)CN(C)C(=O)[C@H](Cc2ccc(C(F)(F)F)cc2)N2CC/C=C\C[C@@H](C2=O)N(C)C(=O)CN(C)C1=O [PP1727] | 4 | A (a compound having 10 or more and less than 20 is denoted as A) | A (a compound having 10 or more and less than 20 is denoted as A) |
| CCCN(C)C(=O)[C@@H]1CC(=O)N(C)[C@@H](COC)C(=O)N[C@@H]([C@@H](C)CC)C(=O)N(C)CC(=O)N(C)[C@H]2C/C=C\CCN(C2=O)[C@@H](Cc2ccc(C(F)(F)F)cc2)C(=O)N(C)CC(=O)N[C@@H](CCc2cc(F)c(C(F)(F)F)c(F)c2)C(=O)N2CCC[C@H]2C(=O)NC2(CC(C)(C)C2)C(=O)N(C)[C@@H](C2CCCC2)C(=O)N1C [PP1729] | 20.6 | A (a compound having 10 or more and less than 20 is denoted as A) | AA (a compound having 20 or more is denoted as AA) |
| CCCN(C)C(=O)[C@@H]1CC(=O)N(C)[C@@H](C)C(=O)N[C@@H]([C@@H](C)CC)C(=O)N(C)CC(=O)N(C)[C@H]2C/C=C\CCN(C2=O)[C@@H](Cc2ccc(C(F)(F)F)cc2)C(=O)N(C)CC(=O)N[C@@H](CCc2cc(F)c(C(F)(F)F)c(F)c2)C(=O)N2C[C@H](OCC)C[C@H]2C(=O)NC2(CC(F)(F)C2)C(=O)N(C)[C@@H](C2CCCC2)C(=O)N1C [PP1731] | 7.4 | A (a compound having 10 or more and less than 20 is denoted as A) | A (a compound having 10 or more and less than 20 is denoted as A) |
| CCCN(C)C(=O)[C@@H]1CC(=O)N(C)[C@@H](CC)C(=O)N[C@@H]([C@@H](C)CC)C(=O)N(C)CC(=O)N(C)[C@H]2C/C=C\CCN(C2=O)[C@@H](Cc2ccc(C(F)(F)F)cc2)C(=O)N(C)CC(=O)N[C@@H](CCc2cc(F)c(C(F)(F)F)c(F)c2)C(=O)N2C[C@H](OCC)C[C@H]2C(=O)NC2(CC(F)(F)C2)C(=O)N(C)[C@@H](C2CCCC2)C(=O)N1C [PP1732] | 6.4 | A (a compound having 10 or more and less than 20 is denoted as A) | AA (a compound having 20 or more is denoted as AA) |
| CCCN(C)C(=O)[C@@H]1CC(=O)N(C)[C@@H](CC(F)F)C(=O)N[C@@H]([C@@H](C)CC)C(=O)N(C)CC(=O)N(C)[C@H]2C/C=C\CCN(C2=O)[C@@H](Cc2ccc(C(F)(F)F)cc2)C(=O)N(C)CC(=O)N[C@@H](CCc2cc(F)c(C(F)(F)F)c(F)c2)C(=O)N2C[C@H](OCC)C[C@H]2C(=O)NC2(CC(F)(F)C2)C(=O)N(C)[C@@H](C2CCCC2)C(=O)N1C [PP1733] | 3.8 | A (a compound having 10 or more and less than 20 is denoted as A) | A (a compound having 10 or more and less than 20 is denoted as A) |
| CCCN(C)C(=O)[C@@H]1CC(=O)N(C)[C@@H](CC(F)(F)F)C(=O)N[C@@H]([C@@H](C)CC)C(=O)N(C)CC(=O)N(C)[C@H]2C/C=C\CCN(C2=O)[C@@H](Cc2ccc(C(F)(F)F)cc2)C(=O)N(C)CC(=O)N[C@@H](CCc2cc(F)c(C(F)(F)F)c(F)c2)C(=O)N2C[C@H](OCC)C[C@H]2C(=O)NC2(CC(F)(F)C2)C(=O)N(C)[C@@H](C2CCCC2)C(=O)N1C [PP1734] | 4.4 | A (a compound having 10 or more and less than 20 is denoted as A) | A (a compound having 10 or more and less than 20 is denoted as A) |
| CCC[C@H]1C(=O)N[C@@H]([C@@H](C)CC)C(=O)N(C)CC(=O)N(C)[C@H]2C/C=C\CCN(C2=O)[C@@H](Cc2ccc(C(F)(F)F)cc2)C(=O)N(C)CC(=O)N[C@@H](CCc2cc(F)c(C(F)(F)F)c(F)c2)C(=O)N2C[C@H](OCC)C[C@H]2C(=O)NC2(CC(F)(F)C2)C(=O)N(C)[C@@H](C2CCCC2)C(=O)N(C)[C@H](C(=O)N(C)CC)CC(=O)N1C [PP1735] | 2.2 | A (a compound having 10 or more and less than 20 is denoted as A) | AA (a compound having 20 or more is denoted as AA) |
| CCC[C@H]1C(=O)N[C@@H]([C@@H](C)CC)C(=O)N(C)CC(=O)N(C)[C@H]2C/C=C\CCN(C2=O)[C@@H](Cc2ccc(C(F)(F)F)cc2)C(=O)N(C)CC(=O)N[C@@H](CCc2cc(F)c(C(F)(F)F)c(F)c2)C(=O)N2C[C@H](OCC)C[C@H]2C(=O)NC2(CC(F)(F)C2)C(=O)N(C)[C@@H](C2CCCC2)C(=O)N(C)[C@H](C(=O)N(C)CCC)CC(=O)N1C [PP1736] | 3.6 | A (a compound having 10 or more and less than 20 is denoted as A) | A (a compound having 10 or more and less than 20 is denoted as A) |
| C#CC[C@H]1C(=O)N[C@@H]([C@@H](C)CC)C(=O)N(C)CC(=O)N(C)[C@H]2C/C=C\CCN(C2=O)[C@@H](Cc2ccc(C(F)(F)F)cc2)C(=O)N(C)CC(=O)N[C@@H](CCc2cc(F)c(C(F)(F)F)c(F)c2)C(=O)N2C[C@H](OCC)C[C@H]2C(=O)NC2(CC(F)(F)C2)C(=O)N(C)[C@@H](C2CCCC2)C(=O)N(C)[C@H](C(=O)N(C)CCC)CC(=O)N1C [PP1737] | 2.7 | A (a compound having 10 or more and less than 20 is denoted as A) | A (a compound having 10 or more and less than 20 is denoted as A) |

Source: patent EP4603105A1, “PHARMACEUTICAL COMPOSITION CONTAINING CYCLIC COMPOUND HAVING SELECTIVE KRAS INHIBITORY EFFECT AGAINST HRAS AND NRAS” (CHUGAI SEIYAKU KABUSHIKI KAISHA, priority 2022, dated 2024)
